Measured values reported in publication PMC2829555, “The zebrafish genome encodes the largest vertebrate repertoire of functional aquaporins with dual paralogy and substrate specificities similar to mammals” (BMC Evolutionary Biology, 2010).

Experiments:
Assay in all cases: radiolabelled solute uptake in cRNA-injected oocytes
Assay type in all cases: cell-based
Details in all cases: MBS buffer, 1 mM solute, 10 min, room temperature; labelled compound
DrAqp10a = molecular target: T1, DrAqp10a (Danio rerio, UniProt A0A8M1N0C8)
T1 construct: gene aqp10a; full-length cDNA in pT7Ts, untagged, cRNA-injected Xenopus laevis oocytes
T1 sequence (A0A8M1N0C8 1-293): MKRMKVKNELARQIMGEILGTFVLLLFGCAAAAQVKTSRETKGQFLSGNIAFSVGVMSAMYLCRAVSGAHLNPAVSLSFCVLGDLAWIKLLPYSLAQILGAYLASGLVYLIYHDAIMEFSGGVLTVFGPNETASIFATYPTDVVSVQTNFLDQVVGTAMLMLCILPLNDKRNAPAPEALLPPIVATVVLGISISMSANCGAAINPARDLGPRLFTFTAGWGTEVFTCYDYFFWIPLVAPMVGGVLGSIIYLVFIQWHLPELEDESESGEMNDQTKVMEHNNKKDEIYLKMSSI

DrAqp7 = molecular target: T2, DrAqp7 (Danio rerio, UniProt D3TZW4)
T2 construct: gene aqp7; full-length cDNA in pT7Ts, untagged, cRNA-injected Xenopus laevis oocytes
T2 sequence (D3TZW4 1-303): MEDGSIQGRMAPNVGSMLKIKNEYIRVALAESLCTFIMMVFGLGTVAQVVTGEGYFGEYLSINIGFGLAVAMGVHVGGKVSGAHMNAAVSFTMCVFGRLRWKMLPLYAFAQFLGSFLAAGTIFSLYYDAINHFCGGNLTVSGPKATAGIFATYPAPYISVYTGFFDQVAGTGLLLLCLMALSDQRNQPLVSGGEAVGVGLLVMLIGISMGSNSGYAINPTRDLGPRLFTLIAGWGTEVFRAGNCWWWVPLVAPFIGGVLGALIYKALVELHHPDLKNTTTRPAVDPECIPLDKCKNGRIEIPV

DrAqp9b = molecular target: T3, DrAqp9b (Danio rerio, UniProt D5FFZ1)
T3 construct: gene aqp9b; full-length cDNA in pT7Ts, untagged, cRNA-injected Xenopus laevis oocytes; FJ655387 is printed for both 9a and 9b
T3 sequence (D5FFZ1 1-291): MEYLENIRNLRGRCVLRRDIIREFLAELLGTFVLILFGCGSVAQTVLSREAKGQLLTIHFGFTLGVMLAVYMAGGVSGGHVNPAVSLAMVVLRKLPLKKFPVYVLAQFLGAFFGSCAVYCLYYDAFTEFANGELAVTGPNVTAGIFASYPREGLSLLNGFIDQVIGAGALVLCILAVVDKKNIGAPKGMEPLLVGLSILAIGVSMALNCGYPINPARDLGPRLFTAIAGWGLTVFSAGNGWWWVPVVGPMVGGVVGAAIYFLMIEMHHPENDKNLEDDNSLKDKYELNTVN

DrAqp10b = molecular target: T4, DrAqp10b (Danio rerio, UniProt Q1L8T0)
T4 construct: gene aqp10b; full-length cDNA in pT7Ts, untagged, cRNA-injected Xenopus laevis oocytes
T4 sequence (Q1L8T0 1-276): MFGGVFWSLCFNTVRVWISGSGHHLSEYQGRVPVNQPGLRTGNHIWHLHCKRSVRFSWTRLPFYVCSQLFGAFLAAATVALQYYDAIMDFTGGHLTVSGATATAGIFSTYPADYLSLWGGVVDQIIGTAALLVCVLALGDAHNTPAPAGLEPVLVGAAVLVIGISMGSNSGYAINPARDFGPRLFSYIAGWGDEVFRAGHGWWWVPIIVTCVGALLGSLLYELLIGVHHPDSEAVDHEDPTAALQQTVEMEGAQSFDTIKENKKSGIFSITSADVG

DrAqp3b = molecular target: T5, DrAqp3b (Danio rerio, UniProt D3TI80)
T5 construct: gene aqp3b; full-length cDNA in pT7Ts, untagged, cRNA-injected Xenopus laevis oocytes
T5 sequence (D3TI80 1-299): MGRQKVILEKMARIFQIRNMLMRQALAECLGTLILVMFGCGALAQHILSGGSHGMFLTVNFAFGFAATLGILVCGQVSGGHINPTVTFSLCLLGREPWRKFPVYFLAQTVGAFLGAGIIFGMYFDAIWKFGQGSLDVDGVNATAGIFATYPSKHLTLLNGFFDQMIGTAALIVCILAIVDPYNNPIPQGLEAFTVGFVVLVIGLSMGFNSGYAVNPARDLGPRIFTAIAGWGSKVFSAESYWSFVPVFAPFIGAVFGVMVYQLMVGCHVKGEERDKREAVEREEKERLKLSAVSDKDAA

DrAqp3a = molecular target: T6, DrAqp3a (Danio rerio, UniProt Q803U6)
T6 construct: gene aqp3a; full-length cDNA in pT7Ts, untagged, cRNA-injected Xenopus laevis oocytes
T6 sequence (Q803U6 1-296): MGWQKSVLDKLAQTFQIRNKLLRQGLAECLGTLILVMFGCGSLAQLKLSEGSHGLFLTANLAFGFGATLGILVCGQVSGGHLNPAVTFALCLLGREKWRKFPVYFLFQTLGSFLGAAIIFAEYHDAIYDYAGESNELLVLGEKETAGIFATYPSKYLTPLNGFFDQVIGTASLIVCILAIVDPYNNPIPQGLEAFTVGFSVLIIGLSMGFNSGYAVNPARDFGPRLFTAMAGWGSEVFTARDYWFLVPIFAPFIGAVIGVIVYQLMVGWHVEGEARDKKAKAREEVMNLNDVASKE

DrAqp9a = molecular target: T7, DrAqp9a (Danio rerio, UniProt Q498W2)
T7 construct: gene aqp9a; full-length cDNA in pT7Ts, untagged, cRNA-injected Xenopus laevis oocytes
T7 sequence (Q498W2 1-294): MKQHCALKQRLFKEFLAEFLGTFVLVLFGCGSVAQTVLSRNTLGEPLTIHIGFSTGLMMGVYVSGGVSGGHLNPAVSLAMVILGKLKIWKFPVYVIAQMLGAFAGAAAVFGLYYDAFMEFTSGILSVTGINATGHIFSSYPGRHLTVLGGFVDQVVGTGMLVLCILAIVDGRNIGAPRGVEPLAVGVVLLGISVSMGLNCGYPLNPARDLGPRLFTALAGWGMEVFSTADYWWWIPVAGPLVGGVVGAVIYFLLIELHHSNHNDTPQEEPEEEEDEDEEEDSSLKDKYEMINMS

DrAqp8aa = molecular target: T8, DrAqp8aa (Danio rerio, UniProt Q66I64)
T8 construct: gene aqp8a.1; full-length cDNA in pT7Ts, untagged, cRNA-injected Xenopus laevis oocytes
T8 sequence (Q66I64 1-260): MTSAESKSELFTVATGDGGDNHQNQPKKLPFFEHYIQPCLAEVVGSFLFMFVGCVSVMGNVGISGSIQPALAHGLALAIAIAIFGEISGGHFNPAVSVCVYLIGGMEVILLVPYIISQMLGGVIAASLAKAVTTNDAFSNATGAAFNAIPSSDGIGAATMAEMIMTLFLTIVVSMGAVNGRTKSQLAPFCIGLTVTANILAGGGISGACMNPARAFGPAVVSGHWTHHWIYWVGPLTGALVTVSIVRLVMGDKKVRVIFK

DrAqp8ab = molecular target: T9, DrAqp8ab (Danio rerio, UniProt A0A8N1TQ94)
T9 construct: gene aqp8a.2; full-length cDNA in pT7Ts, untagged, cRNA-injected Xenopus laevis oocytes
T9 sequence (A0A8N1TQ94 1-257): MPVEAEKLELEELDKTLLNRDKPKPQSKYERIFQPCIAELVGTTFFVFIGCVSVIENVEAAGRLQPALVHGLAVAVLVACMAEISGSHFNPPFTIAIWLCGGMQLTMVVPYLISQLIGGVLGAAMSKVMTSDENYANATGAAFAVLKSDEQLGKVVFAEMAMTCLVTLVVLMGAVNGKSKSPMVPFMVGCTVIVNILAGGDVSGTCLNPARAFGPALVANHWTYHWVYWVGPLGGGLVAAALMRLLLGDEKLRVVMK

| Compound | radiolabelled solute uptake in cRNA-injected oocytes (DrAqp10a) | radiolabelled solute uptake in cRNA-injected oocytes (DrAqp7) | radiolabelled solute uptake in cRNA-injected oocytes (DrAqp9b) | radiolabelled solute uptake in cRNA-injected oocytes (DrAqp10b) | radiolabelled solute uptake in cRNA-injected oocytes (DrAqp3b) | radiolabelled solute uptake in cRNA-injected oocytes (DrAqp3a) | radiolabelled solute uptake in cRNA-injected oocytes (DrAqp9a) | radiolabelled solute uptake in cRNA-injected oocytes (DrAqp8aa) | radiolabelled solute uptake in cRNA-injected oocytes (DrAqp8ab) |
| --- | --- | --- | --- | --- | --- | --- | --- | --- | --- |
| OCC(O)CO [glycerol] | draqp3a, -3b, -7, -9a, -9b, -10a and -10b were also permeable to glycerol and urea | draqp3a, -3b, -7, -9a, -9b, -10a and -10b were also permeable to glycerol and urea | draqp3a, -3b, -7, -9a, -9b, -10a and -10b were also permeable to glycerol and urea | draqp3a, -3b, -7, -9a, -9b, -10a and -10b were also permeable to glycerol and urea | draqp3a, -3b, -7, -9a, -9b, -10a and -10b were also permeable to glycerol and urea | draqp3a, -3b, -7, -9a, -9b, -10a and -10b were also permeable to glycerol and urea | draqp3a, -3b, -7, -9a, -9b, -10a and -10b were also permeable to glycerol and urea |  |  |
| NC(N)=O [urea] | draqp3a, -3b, -7, -9a, -9b, -10a and -10b were also permeable to glycerol and urea | draqp3a, -3b, -7, -9a, -9b, -10a and -10b were also permeable to glycerol and urea | draqp3a, -3b, -7, -9a, -9b, -10a and -10b were also permeable to glycerol and urea | in the case of draqp10b urea permeability was low | draqp3a, -3b, -7, -9a, -9b, -10a and -10b were also permeable to glycerol and urea | draqp3a, -3b, -7, -9a, -9b, -10a and -10b were also permeable to glycerol and urea | draqp3a, -3b, -7, -9a, -9b, -10a and -10b were also permeable to glycerol and urea | Oocytes expressing draqp8aa or -8ab were permeable to water and urea, but not glycerol | Oocytes expressing draqp8aa or -8ab were permeable to water and urea, but not glycerol |
